Results from ChEMBL document CHEMBL1147972, “1,3-disubstituted 4-aminopiperidines as useful tools in the optimization of the 2-aminobenzo[a]quinolizine dipeptidyl peptidase IV inhibitors” (Bioorg Med Chem Lett, 2007).

Legend:
Rattus norvegicus = assay: Reduction in glucose level in fa/fa rat after oral glucose tolerance test at 0.3 mg/kg administered 2 hrs before glucose challenge; format: functional; set-up: scale not given: the % may be the effect or the level left
[1] = Solubility of the compound; format: physicochemical
[2] = Distribution coefficient, log D at pH 7.4; format: physicochemical; conditions: octanol/water
[3] = Permeability coefficient across PAMPA; format: ADME; conditions: read-out: permeability
Cytochrome P450 2C9 = Cytochrome P450 2C9 (Homo sapiens, UniProt P11712); assay: Inhibition of CYP2C9; format: ADME
Liver microsomes [4] = assay: Clearance in human liver microsome; format: ADME
Liver microsomes [5] = assay: Clearance in rat liver microsome; format: ADME
Cytochrome P450 2D6 = Cytochrome P450 2D6 (Homo sapiens, UniProt P10635); assay: Inhibition of CYP2D6; format: ADME
Cytochrome P450 3A4 = Cytochrome P450 3A4 (Homo sapiens, UniProt P08684); assay: Inhibition of CYP3A4; format: ADME
Chain of Cytochrome P450 3A4 (P08684 whole entry): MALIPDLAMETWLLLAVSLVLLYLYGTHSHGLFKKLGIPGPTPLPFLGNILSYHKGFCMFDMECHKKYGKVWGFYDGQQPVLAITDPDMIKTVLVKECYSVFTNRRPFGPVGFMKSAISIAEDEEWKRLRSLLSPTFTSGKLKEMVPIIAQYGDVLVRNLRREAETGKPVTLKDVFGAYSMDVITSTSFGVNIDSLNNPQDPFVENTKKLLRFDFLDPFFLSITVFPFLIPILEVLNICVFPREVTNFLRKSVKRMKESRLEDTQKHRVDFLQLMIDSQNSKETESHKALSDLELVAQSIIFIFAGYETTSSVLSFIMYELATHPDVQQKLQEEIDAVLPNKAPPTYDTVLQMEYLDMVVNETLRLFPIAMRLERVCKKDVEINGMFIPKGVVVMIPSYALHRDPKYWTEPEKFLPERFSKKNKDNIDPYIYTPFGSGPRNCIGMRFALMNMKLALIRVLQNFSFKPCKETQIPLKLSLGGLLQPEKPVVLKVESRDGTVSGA

Chain of Cytochrome P450 2C9 (P11712 whole entry): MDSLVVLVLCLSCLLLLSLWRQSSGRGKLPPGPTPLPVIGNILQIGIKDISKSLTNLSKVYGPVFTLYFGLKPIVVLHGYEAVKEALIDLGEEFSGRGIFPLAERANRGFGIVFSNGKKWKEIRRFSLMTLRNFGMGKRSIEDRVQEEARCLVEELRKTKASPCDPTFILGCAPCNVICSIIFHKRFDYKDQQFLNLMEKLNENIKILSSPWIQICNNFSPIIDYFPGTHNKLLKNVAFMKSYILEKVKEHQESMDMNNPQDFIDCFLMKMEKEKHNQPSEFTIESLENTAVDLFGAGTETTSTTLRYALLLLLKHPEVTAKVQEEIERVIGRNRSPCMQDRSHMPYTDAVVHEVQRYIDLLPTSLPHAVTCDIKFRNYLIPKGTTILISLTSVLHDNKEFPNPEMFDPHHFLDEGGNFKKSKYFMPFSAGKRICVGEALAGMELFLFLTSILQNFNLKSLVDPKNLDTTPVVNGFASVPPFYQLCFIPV
Chain of Cytochrome P450 2D6 (P10635 whole entry): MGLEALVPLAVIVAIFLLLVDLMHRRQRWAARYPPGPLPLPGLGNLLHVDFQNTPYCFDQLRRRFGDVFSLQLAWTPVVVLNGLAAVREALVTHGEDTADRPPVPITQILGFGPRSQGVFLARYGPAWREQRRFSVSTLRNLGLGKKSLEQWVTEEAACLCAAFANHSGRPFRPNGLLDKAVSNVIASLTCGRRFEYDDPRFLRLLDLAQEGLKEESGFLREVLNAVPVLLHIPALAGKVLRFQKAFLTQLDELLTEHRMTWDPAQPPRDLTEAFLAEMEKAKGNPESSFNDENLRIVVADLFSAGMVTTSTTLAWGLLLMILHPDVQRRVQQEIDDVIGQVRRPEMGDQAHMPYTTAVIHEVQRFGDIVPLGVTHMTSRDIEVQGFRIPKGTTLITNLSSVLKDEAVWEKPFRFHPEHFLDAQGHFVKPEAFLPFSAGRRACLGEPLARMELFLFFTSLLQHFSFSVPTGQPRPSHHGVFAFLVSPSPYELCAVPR

Row | Solubility [1] | logD [2] | Papp [3] | IC50 (Cytochrome P450 2C9) | clearance (Liver microsomes [4]) | clearance (Liver microsomes [5]) | IC50 (Cytochrome P450 2D6) | IC50 (Cytochrome P450 3A4) | SMILES | Activity (Rattus norvegicus)
1 | > 414 µg/mL | 0.8 | 2.5 ×10⁻⁶ cm/s | > 50 µM | 0 µL/min/mg | 4.7 µL/min/mg | > 50 µM | > 50 µM | CCCC[C@H]1CN2CCc3cc(OC)c(OC)cc3[C@@H]2C[C@@H]1N | -16%
2 | > 469 µg/mL | 1.3 | 3.4 ×10⁻⁶ cm/s | 15 µM | 3 µL/min/mg | 1 µL/min/mg | 11 µM | > 50 µM | COc1cc2c(cc1OC)[C@@H]1C[C@H](N)[C@@H](c3cccc(C)c3)CN1CC2 | -41%
